Assay results: patent US20220144913A1, “PERSONALIZED AND TIMED RELEASE OF BIOMOLECULES” (The General Hospital Corporation, priority 2019, published 2022)
“Also recorded” adds a separate entry of the source. Like-named read-outs stand apart in the source and are kept apart here.

What was measured:
[1] = system: circadian clocks of Jurkat human leukemic T-cells; assay: KL001 disruption of circadian clock driven GLUC secretion, continuous flow; assay type: cell-based; conditions: 20 μM KL001 for 24 hours before dexamethasone synchronization
Description: Luminescence was recorded by the device as relative luminescence units (RLU). Continuous monitoring of plasma luciferase from mice is described in a separate section below. To monitor continuous secretion of luciferase from cells in vitro over time, cells were seeded onto a custom-made constant flow cell culture and collection device. For each experiment, 16×10^6 cells in approximately 2 ml of media were injected into a tube-like bag made from air permeable material (Rogers Corporation HT-6240 Transparent 0.010″) with approximate dimensions of 20 cm in length and 0.6 cm in diameter. We have previously shown that vessels made from this material are optimal for the expansion of human T-cells (Li et al. 2018). Silicone tubing (Platinum LS14 Masterflex cat #96410-14) was used to connect the cell containing vessel to media filled syringes operated by a PHD 2000 syringe pump (Harvard Apparatus) and to a Biologic Biofrac fraction collector (Biorad). Cells were allowed to settle for 3-4 hours prior to flowing media at 3.8 ml/hour. […] For circadian experiments, cells were synchronized with 10 μM dexamethasone (Sigma cat #D4902) for 30 minutes, washed 3 times with PBS and seeded onto a continuous flow vessel either immediately or after a 24-hour incubation. […]

[2] = in vivo; cited from earlier work
NFkB = assay: NFkB-GLuc reporter stimulation in HepG2 hepatocytes; assay type: cell-based; conditions: two doses of stimulant; media sampled after 12 hours
Text: HepG2 hepatocytes were engineered with the NFkB-GLuc construct and stimulated with either inflammatory LPS or IL-1b at two different doses.

[3] = in vivo; cited from earlier work; remark: listed apart in the source
DS-1 cells = assay: IL-6-dependent proliferation of DS-1 cells in sGP130 conditioned media; assay type: cell-based; conditions: conditioned media with secreted sGP130 from cells engineered with EF1α-sGP130
Text: Media from cells engineered with EF1a-sGP130 constructs was sampled, along with cell lysate, showing that measurable protein levels increase over time (FIG. 15A).
Media from cells engineered with EF1α-sGP130 constructs was sampled, along with cell lysate, showing that measurable protein levels increase over time (FIG. 15A).

CS(=O)(=O)N(Cc1ccco1)CC(O)Cn1c2ccccc2c2ccccc21 (stereo not shown) [KL001]
effect on dynamic nature of Circa2 driven GLUC secretion ([1]; stable Jurkat Circa2-GLUC cells): severely disrupting the dynamic nature; also recorded: abolishes dynamic nature
effect on EF1α driven GLUC secretion ([1]; stable Jurkat EF1α-GLUC cells): little to no effect

glucagon-like petide-1 (HAEGTFTSDVSSYLEGQAAKEEFIIAWLVKGRG; listed as Homo sapiens) [GLP1]
half-life [2]: 30 min

bacterial lipopolysaccharide [LPS]
relative GLuc signal (NFkB): increased dose dependently

parathyroid hormone [PTH]
half-life [3]: around 5 minutes

IL-1b: cytokine stimulant acting on a different response element (MAPK)
relative GLuc signal (NFkB): not stimulated

B1: sGP130: soluble GP130 secreted from cells engineered with EF1α-sGP130 constructs; inhibits IL-6 signaling (protein)
chain: QLLEPCGYIYPEFPVVQRGSNFTAICVLKEACLQHYYVNASYIVWKTNHAAVPREQVTVINRTTSSVTFTDVVLPSVQLTCNILSFGQIEQNVYGVTMLSGFPPDKPTNLTCIVNEGKNMLCQWDPGRETYLETNYTLKSEWATEKFPDCQSKHGTSCMVSYMPTYYVNIEVWVEAENALGKVSSESINFDPVDKVKPTPPYNLSVTNSEELSSILKLSWVSSGLGGLLDLKSDIQYRTKDASTWIQVPLEDTMSPRTSFTVQDLKPFTEYVFRIRSIKDSGKGYWSDWSEEASGTTYEDRPSRPPSFWYKTNPSHGQEYRSVRLIWKALPLSEANGKILDYEVILTQSKSVSQTYTVTGTELTVNLTNDRYVASLAARNKVGKSAAAVLTIPSPHVTAAYSVVNLKAFPKDNLLWVEWTPPPKPVSKYILEWCVLSENAPCVEDWQQEDATVNRTHLRGRLLESKCYQITVTPVFATGPGGSESLKAYLKQAAPARGPTVRTKKVGKNEAVLAWDQIPVDDQNGFIRNYSISYRTSVGKEMVVHVDSSHTEYTLSSLSSDTLYMVRMAAYTDEGGKDGPEFTFTTPKFAQGEIE
proliferation of DS-1 cells (DS-1 cells): proliferation is suppressed; also recorded: suppress IL-6-dependent proliferation
